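Exposure lasted 48 hours, with cells grown in 96-well plates and compounds tested at five concentrations. GI50: concentration for 50% inhibition of growth. TGI: total growth inhibition.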
How the values were obtained:
Assay in all cases: NCI-60 cell line screen, 48 h
SK-OV-3 ovarian = test system: SK-OV-3 ovarian
HS 578T breast = test system: HS 578T breast
SK-MEL-2 melanoma = test system: SK-MEL-2 melanoma
UO-31 renal = test system: UO-31 renal
MDA-MB-435 = test system: MDA-MB-435
M14 melanoma = test system: M14 melanoma
ACHN renal = test system: ACHN renal
LOX IMVI melanoma = test system: LOX IMVI melanoma
SK-MEL-28 melanoma = test system: SK-MEL-28 melanoma
NCI-H23 lung = test system: NCI-H23 lung
SF-268 CNS = test system: SF-268 CNS
HCT-15 colon = test system: HCT-15 colon
SF-295 CNS = test system: SF-295 CNS
BT-549 breast = test system: BT-549 breast
UACC-62 melanoma = test system: UACC-62 melanoma
HCT-116 colon = test system: HCT-116 colon
T-47D breast = test system: T-47D breast
PC-3 prostate = test system: PC-3 prostate
SNB-19 CNS = test system: SNB-19 CNS
HL-60(TB) leukemia = test system: HL-60(TB) leukemia
786-0 renal = test system: 786-0 renal
OVCAR-8 ovarian = test system: OVCAR-8 ovarian
RPMI-8226 leukemia = test system: RPMI-8226 leukemia
TK-10 renal = test system: TK-10 renal
SW-620 colon = test system: SW-620 colon
MALME-3M melanoma = test system: MALME-3M melanoma
SF-539 CNS = test system: SF-539 CNS
OVCAR-3 ovarian = test system: OVCAR-3 ovarian
SN12C renal = test system: SN12C renal
EKVX NSCLC = test system: EKVX NSCLC
A549 NSCLC = test system: A549 NSCLC
HCC-2998 colon = test system: HCC-2998 colon
NCI-H226 lung = test system: NCI-H226 lung
SR leukemia = test system: SR leukemia
RXF 393 renal = test system: RXF 393 renal
HOP-62 NSCLC = test system: HOP-62 NSCLC
SK-MEL-5 melanoma = test system: SK-MEL-5 melanoma
HT29 colon = test system: HT29 colon
OVCAR-5 ovarian = test system: OVCAR-5 ovarian
UACC-257 melanoma = test system: UACC-257 melanoma
DU-145 prostate = test system: DU-145 prostate
A498 renal = test system: A498 renal
OVCAR-4 ovarian = test system: OVCAR-4 ovarian
CCRF-CEM leukemia = test system: CCRF-CEM leukemia
MCF7 breast = test system: MCF7 breast
U251 CNS = test system: U251 CNS
K-562 leukemia = test system: K-562 leukemia
MOLT-4 leukemia = test system: MOLT-4 leukemia
NCI/ADR-RES ovarian = test system: NCI/ADR-RES ovarian
NCI-H460 lung = test system: NCI-H460 lung
MDA-MB-231 breast = test system: MDA-MB-231 breast
SNB-75 CNS = test system: SNB-75 CNS
NCI-H522 lung = test system: NCI-H522 lung
KM12 colon = test system: KM12 colon
COLO 205 colon = test system: COLO 205 colon
IGROV1 ovarian = test system: IGROV1 ovarian
HOP-92 NSCLC = test system: HOP-92 NSCLC

Which results are given for `COc1cc(-c2nc(NC(C)=O)sc2-c2ccnc(NCCNS(=O)(=O)c3ccccc3)n2)ccc1Cl`?
GI50 (SK-OV-3 ovarian): 4.77 µM; TGI (SK-OV-3 ovarian): > 100 µM; GI50 (HS 578T breast): 6.61 µM; TGI (HS 578T breast): > 100 µM; GI50 (SK-MEL-2 melanoma): 2.42 µM; TGI (SK-MEL-2 melanoma): 6.23 µM; GI50 (UO-31 renal): 4.46 µM; TGI (UO-31 renal): > 100 µM; GI50 (MDA-MB-435): 0.799 µM; TGI (MDA-MB-435): 3.45 µM; GI50 (M14 melanoma): 2.09 µM; TGI (M14 melanoma): 5.42 µM; GI50 (ACHN renal): 3.1 µM; TGI (ACHN renal): > 100 µM; GI50 (LOX IMVI melanoma): 4.41 µM; TGI (LOX IMVI melanoma): > 100 µM; GI50 (SK-MEL-28 melanoma): 3.71 µM; TGI (SK-MEL-28 melanoma): > 100 µM; GI50 (NCI-H23 lung): 5 µM; TGI (NCI-H23 lung): > 100 µM; GI50 (SF-268 CNS): 4.25 µM; TGI (SF-268 CNS): > 100 µM; GI50 (HCT-15 colon): 3.78 µM; TGI (HCT-15 colon): > 100 µM; GI50 (SF-295 CNS): 2.74 µM; TGI (SF-295 CNS): 13.4 µM; GI50 (BT-549 breast): 3.1 µM; TGI (BT-549 breast): > 100 µM; GI50 (UACC-62 melanoma): 2.61 µM; TGI (UACC-62 melanoma): > 100 µM; GI50 (HCT-116 colon): 3.17 µM; TGI (HCT-116 colon): 35.7 µM; GI50 (T-47D breast): 2.69 µM; TGI (T-47D breast): > 100 µM; GI50 (PC-3 prostate): 2.88 µM; TGI (PC-3 prostate): > 100 µM; GI50 (SNB-19 CNS): 6.51 µM; TGI (SNB-19 CNS): > 100 µM; GI50 (HL-60(TB) leukemia): 3.14 µM; TGI (HL-60(TB) leukemia): 7.45 µM; GI50 (786-0 renal): 4.31 µM; TGI (786-0 renal): > 100 µM; GI50 (OVCAR-8 ovarian): 5.21 µM; TGI (OVCAR-8 ovarian): > 100 µM; GI50 (RPMI-8226 leukemia): 3.77 µM; TGI (RPMI-8226 leukemia): > 100 µM; GI50 (TK-10 renal): 6.33 µM; TGI (TK-10 renal): > 100 µM; GI50 (SW-620 colon): 4.37 µM; TGI (SW-620 colon): > 100 µM; GI50 (MALME-3M melanoma): 3.8 µM; TGI (MALME-3M melanoma): > 100 µM; GI50 (SF-539 CNS): 2.86 µM; TGI (SF-539 CNS): 8.48 µM; GI50 (OVCAR-3 ovarian): 3.09 µM; TGI (OVCAR-3 ovarian): 32.6 µM; GI50 (SN12C renal): 5.47 µM; TGI (SN12C renal): > 100 µM; GI50 (EKVX NSCLC): 5.25 µM; TGI (EKVX NSCLC): > 100 µM; GI50 (A549 NSCLC): 4.5 µM; TGI (A549 NSCLC): > 100 µM; GI50 (HCC-2998 colon): 20.9 µM; TGI (HCC-2998 colon): > 100 µM; GI50 (NCI-H226 lung): 6.45 µM; TGI (NCI-H226 lung): > 100 µM; GI50 (SR leukemia): 2.3 µM; TGI (SR leukemia): > 100 µM; GI50 (RXF 393 renal): 2.74 µM; TGI (RXF 393 renal): 7.53 µM; GI50 (HOP-62 NSCLC): 6.78 µM; TGI (HOP-62 NSCLC): > 100 µM; GI50 (SK-MEL-5 melanoma): 1.58 µM; TGI (SK-MEL-5 melanoma): 4.25 µM; GI50 (HT29 colon): 2.94 µM; TGI (HT29 colon): > 100 µM; GI50 (OVCAR-5 ovarian): 9.77 µM; TGI (OVCAR-5 ovarian): > 100 µM; GI50 (UACC-257 melanoma): 5.37 µM; TGI (UACC-257 melanoma): > 100 µM; GI50 (DU-145 prostate): 5.11 µM; TGI (DU-145 prostate): > 100 µM; GI50 (A498 renal): 2.96 µM; TGI (A498 renal): 8.97 µM; GI50 (OVCAR-4 ovarian): 3.58 µM; TGI (OVCAR-4 ovarian): > 100 µM; GI50 (CCRF-CEM leukemia): 4.03 µM; TGI (CCRF-CEM leukemia): > 100 µM; GI50 (MCF7 breast): 2.4 µM; TGI (MCF7 breast): > 100 µM; GI50 (U251 CNS): 5.22 µM; TGI (U251 CNS): > 100 µM; GI50 (K-562 leukemia): 3.87 µM; TGI (K-562 leukemia): > 100 µM; GI50 (MOLT-4 leukemia): 3.17 µM; TGI (MOLT-4 leukemia): > 100 µM; GI50 (NCI/ADR-RES ovarian): > 100 µM; TGI (NCI/ADR-RES ovarian): > 100 µM; GI50 (NCI-H460 lung): 3.08 µM; TGI (NCI-H460 lung): 10.8 µM; GI50 (MDA-MB-231 breast): 3.81 µM; TGI (MDA-MB-231 breast): > 100 µM; GI50 (SNB-75 CNS): 1.49 µM; TGI (SNB-75 CNS): 7.19 µM; GI50 (NCI-H522 lung): 1.99 µM; TGI (NCI-H522 lung): 8.72 µM; GI50 (KM12 colon): 3.26 µM; TGI (KM12 colon): 59.3 µM; GI50 (COLO 205 colon): 2.21 µM; TGI (COLO 205 colon): 6.01 µM; GI50 (IGROV1 ovarian): 6.75 µM; TGI (IGROV1 ovarian): > 100 µM; GI50 (HOP-92 NSCLC): 2.52 µM; TGI (HOP-92 NSCLC): 72 µM
